Test results reported in US9486507B2, “Pro-coagulant compounds and methods of use thereof” (priority 2011, dated 2016).
“And” between values parts separate entries of the source, which are not always exact repeats. Identical values can stand only once.

Key:
Format in all cases: biochemical
[1] = system: FVIII deficient human plasma; test: Rotational thromboelastometry (ROTEM) in FVIII-deficient human plasma
Procedure: Compounds of the present disclosure were tested by rotational thromboelastometry to evaluate coagulation parameters such as clotting time (CT), α-angle, clot formation time (CFT), maximum clot firmness (MCF). Briefly, lyophilized and citrated FVIII deficient human plasma (Siemens) was reconstituted with 1 mL of distilled water, allowed to stand for 20 min at RT and mixed well before use. Alternatively, an aliquot of citrated (non-lyophilized) FVIII deficient human plasma (HRF, George King, Precision Biologics, or real-time donors) was thawed for 10 min in a 37° C. water bath and when needed centrifuged at 2800 g for 5 min at 25° C. FVIII deficient plasma was spiked with lyophilized platelets (Helena Laboratories, final concentration 0.5×10^8 cells/ml) and compounds, FVIII, or both compound and FVIII. Dilutions of compounds of the present disclosure and controls, such as FVIII, were prepared in PBS (—Ca, —Mg). Next, 300 μl of the spiked plasma was transferred to a ROTEM cup already containing 20 μl of StarTEM (concentrated calcium chloride solution) and 20 μl of lipidated TF (American Diagnostica, final concentration 10 fM) or Kaolin (Sigma-Aldrich, final concentration 0.4 μg/ml) and recording was initiated. The cups were maintained at 37° C. during the testing.

[2] = system: canine FVIII-deficient plasma; test: ROTEM in canine FVIII-deficient plasma; conditions: canine HemA plasma, lyophilized human platelets, 10 fM lipTF
FIXa = FIXa (Homo sapiens, UniProt P00740); test: Heparin accelerated FIXa-AT complex formation assay; parameters: purchased Haematologic Technologies; conditions: for % FIXa-AT complex formation: with heparin
FIXa, sequence (P00740 47-191 limits assumed): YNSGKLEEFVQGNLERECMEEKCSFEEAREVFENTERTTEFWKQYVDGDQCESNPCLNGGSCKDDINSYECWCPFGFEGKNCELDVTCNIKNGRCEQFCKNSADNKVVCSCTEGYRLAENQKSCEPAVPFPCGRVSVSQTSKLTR
FIXa, sequence (P00740 227-461 limits assumed): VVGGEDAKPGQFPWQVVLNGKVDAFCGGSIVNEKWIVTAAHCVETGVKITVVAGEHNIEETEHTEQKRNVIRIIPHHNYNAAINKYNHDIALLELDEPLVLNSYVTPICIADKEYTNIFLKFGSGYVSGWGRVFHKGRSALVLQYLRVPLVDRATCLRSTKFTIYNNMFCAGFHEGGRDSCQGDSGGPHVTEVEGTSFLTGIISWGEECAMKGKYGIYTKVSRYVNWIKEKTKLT
Procedure: Competition studies between the pro-coagulant peptides and heparin: compounds of the present disclosure were tested in a heparin competition assay in an effort to further map the peptide's binding site on FIXa. FIXa inactivation by antithrombin (AT) was assessed by gel electrophoresis in the presence of heparin and varying procoagulant peptide concentrations. The rate of FIXa-AT complex formation was quantified over a 15 minute time course. […] The samples were incubated at 37° C. in a water bath and 12.5 μL aliquots were removed at each time point (0.5, 2, 5, 10, 15 min) and immediately mixed with 12.5 μL SDS 2× non-reducing sample buffer. The samples were heated at 90° C. for 3 min and loaded onto a 4-20% BioRad gel (20 μL/lane). The gel was run at 300V for 25 min, and the bands were quantified using Quantity One software from BioRad.

[3] = FVIII-deficient plasma (containing platelets), 10 μM
[4] = FVIII-deficient plasma, compound 5 2.5 μM + FVIIa-Fc 10 IU/mL
[5] = FVIII-deficient plasma, compound 5 2.5 μM + FVIIa-Fc 20 IU/mL
[6] = human HemA plasma, 5 μM, anti-FVIII pab +
[7] = human HemA plasma, 5 μM, anti-FVIII pab −
[8] = human HemA plasma, 10 μM, anti-FVIII pab +
[9] = human HemA plasma, 10 μM, anti-FVIII pab −

rRAPGKLTCLASYCWLFWTGIA [Compound 5]
Clotting time [1, 3]: 277 s and 298 s
α-angle, degrees [1, 3]: 34 degrees and 27 degrees
Clotting time [1, 4]: 303.5 s
α-angle [1, 4]: 38.5 degrees
Clotting time [1, 5]: 115 s
α-angle [1, 5]: 63 degrees
calcium dependence of procoagulant effect (clotting time) ([1]; compound 5 2.5 and 5 μM, 0 to about 16 mM calcium): sensitive to the calcium concentration
Clotting time [1, 6]: 197 s and 194 s
α-angle, degrees [1, 6]: 48 degrees and 53 degrees
Clotting time [1, 7]: 154 s and 164 s
α-angle, degrees [1, 7]: 51 degrees and 58 degrees
Clotting time [1, 8]: 108 s and 110 s
α-angle, degrees [1, 8]: 67 degrees and 69 degrees
Clotting time [1, 9]: 101 s and 105 s
α-angle, degrees [1, 9]: 70 degrees and 68 degrees
Clotting time ([2]; 0.625 μM): 687 s and 539 s
α-angle, degrees ([2]; 0.625 μM): 12 degrees
Clotting time ([2]; 2.5 μM): 346 s and 356 s
α-angle, degrees ([2]; 2.5 μM): 15; 15 degrees
Clotting time ([2]; 5 μM): 295 s and 369 s
α-angle, degrees ([2]; 5 μM): 29 degrees and 28 degrees
Clotting time ([2]; 10 μM): 286 s and 294 s
α-angle, degrees ([2]; 10 μM): 58 degrees and 57 degrees
inactivation of FIXa by AT (FIXa; absence of heparin): unaffected
heparin-catalyzed FIXa-AT complex formation (FIXa; heparin 100 nM, compound 5 0.1, 1, 10 μM): inhibited the FIXa-AT complex formation in a concentration-dependent manner
% FIXa-AT complex formation (FIXa; Compound 5 0.1 μM, 0.5 min): 57%
% FIXa-AT complex formation (FIXa; Compound 5 0.1 μM, 2 min): 72%
% FIXa-AT complex formation (FIXa; Compound 5 0.1 μM, 5 min): 82%
% FIXa-AT complex formation (FIXa; Compound 5 0.1 μM, 10 min): 82%
% FIXa-AT complex formation (FIXa; Compound 5 0.1 μM, 15 min): 83%
% FIXa-AT complex formation (FIXa; Compound 5 1 μM, 0.5 min): 30%
% FIXa-AT complex formation (FIXa; Compound 5 1 μM, 2 min): 45%
% FIXa-AT complex formation (FIXa; Compound 5 1 μM, 5 min): 55%
% FIXa-AT complex formation (FIXa; Compound 5 1 μM, 10 min): 70%
% FIXa-AT complex formation (FIXa; Compound 5 1 μM, 15 min): 74%
% FIXa-AT complex formation (FIXa; Compound 5 10 μM, 0.5 min): 18%
% FIXa-AT complex formation (FIXa; Compound 5 10 μM, 2 min): 28%
% FIXa-AT complex formation (FIXa; Compound 5 10 μM, 5 min): 41%
% FIXa-AT complex formation (FIXa; Compound 5 10 μM, 10 min): 54%
% FIXa-AT complex formation (FIXa; Compound 5 10 μM, 15 min): 62%
